Assay [1] can be described thus: NIH-3T3 fibroblast cytotoxicity, dose response, cytotoxicity control, cell-based, fluorescence, Alamar Blue, secondary assay (AID 2327).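 Further: NIH-3T3 mouse fibroblasts cultured with fluconazole at 8 µg/mL.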 Type of assay: functional.
Assay [2] in a line: fluconazole-exposed Candida albicans growth modulators – fluorescence, retest, confirmation (AID 2467). The class given is functional, cell-based.
The test system of assay [3] is CHO-K1. Kind of assay: Counterscreen for antagonists of the orexin 1 receptor (OX1R; HCRTR1): Homogeneous time resolved fluorescence (HTRF)-based cell-based dose response assay to identify antagonists of the parental CHO-K1 cell line. [Related pubchem assays (depositor defined):AID434989, AID435008, AID463079, AID485270, AID492963, AID492964, AID492965, AID493232, AID504699, AID504701]. The class given is functional. As to conditions: Cricetulus griseus.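 Further: potency for inhibition of ATP-stimulated IP1 production as antagonists.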

The nature of assay [4]: Counterscreen for antagonists of the orexin 1 receptor (OX1R; HCRTR1): Fluorescence-based cell-based high throughput dose response assay to identify antagonists of the parental CHO cell line. [Related pubchem assays (depositor defined):AID434989, AID435008, AID463079, AID485270, AID492963, AID492964, AID492965, AID493232, AID504699, AID504701]. The class given is functional.

Assay [5] addresses T1, Orexin/Hypocretin receptor type 1 (Homo sapiens, UniProt O43613).
T1 sequence (O43613 whole entry): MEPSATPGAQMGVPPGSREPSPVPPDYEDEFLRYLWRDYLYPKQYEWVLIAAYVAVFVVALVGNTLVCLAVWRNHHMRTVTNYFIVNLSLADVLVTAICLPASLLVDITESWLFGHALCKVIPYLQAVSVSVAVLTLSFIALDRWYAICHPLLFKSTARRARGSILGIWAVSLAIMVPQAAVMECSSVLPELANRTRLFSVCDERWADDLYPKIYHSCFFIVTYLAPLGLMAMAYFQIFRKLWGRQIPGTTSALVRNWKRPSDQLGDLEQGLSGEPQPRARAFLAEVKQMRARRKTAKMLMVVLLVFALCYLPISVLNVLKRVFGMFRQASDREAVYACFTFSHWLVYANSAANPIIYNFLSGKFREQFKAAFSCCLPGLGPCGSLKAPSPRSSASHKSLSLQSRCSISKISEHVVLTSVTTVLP
As to the kind of experiment: Homogeneous Time Resolved Fluorescence (HTRF)-based cell-based high throughput dose response assay for antagonists of the orexin 1 receptor (OX1R; HCRTR1). [Related pubchem assays (depositor defined):AID434989, AID435008, AID463079, AID485270, AID492963, AID492964, AID492965, AID493232, AID504717, AID504718]. The class given is functional.

The target in assay [6] is T1, Orexin/Hypocretin receptor type 1. As to the kind of experiment: Fluorescence-based cell-based high throughput dose response assay for antagonists of the orexin 1 receptor (OX1R; HCRTR1). [Related pubchem assays (depositor defined):AID434989, AID435008, AID463079, AID485270, AID492963, AID492964, AID492965, AID493232, AID504717, AID504718]. The class given is functional.

Assay [7] deals with T2, Orexin receptor type 2 (Homo sapiens, UniProt O43614).
T2 sequence (O43614 whole entry): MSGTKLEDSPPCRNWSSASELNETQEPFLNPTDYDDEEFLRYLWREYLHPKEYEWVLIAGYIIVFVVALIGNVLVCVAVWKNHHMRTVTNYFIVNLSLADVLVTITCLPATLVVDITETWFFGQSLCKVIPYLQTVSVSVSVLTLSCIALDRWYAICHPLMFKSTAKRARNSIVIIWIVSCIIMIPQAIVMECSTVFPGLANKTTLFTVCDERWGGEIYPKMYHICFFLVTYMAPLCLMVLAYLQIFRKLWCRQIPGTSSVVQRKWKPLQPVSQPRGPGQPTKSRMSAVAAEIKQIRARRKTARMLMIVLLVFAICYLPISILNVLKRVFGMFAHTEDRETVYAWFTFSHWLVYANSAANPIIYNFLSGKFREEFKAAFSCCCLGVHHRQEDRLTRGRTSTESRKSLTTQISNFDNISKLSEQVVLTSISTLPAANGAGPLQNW
Kind of assay: Counterscreen assay for antagonists of the orexin 1 receptor (OX1R; HCRTR1): Fluorescence-based cell-based dose response assay for antagonists of the orexin 2 receptor (OX2R; HCRTR2), run by assay provider. The class given is functional.

Assay [8] deals with T2, Orexin receptor type 2. As to the kind of experiment: Counterscreen assay for antagonists of the orexin 1 receptor (OX1R; HCRTR1): Homogeneous Time Resolved Fluorescence (HTRF)-based cell-based dose response assay for antagonists of the orexin 2 receptor (OX2R; HCRTR2), run by assay provider. Type of assay: functional.
The target in assay [9] is NAD-dependent protein deacylase sirtuin-5, mitochondrial (Homo sapiens, UniProt Q9NXA8). As to the kind of experiment: sirtuin-5 deacylation blockers, concentration series – biochemical, fluorescence imaging, cherry-pick, set 5, dose response (AID 720591).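 Further: desuccinylation of succinyl peptide AMC substrate read as fluorescence after trypsin release; potency of inhibitors that lower fluorescence and may act on trypsin instead.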
The target in assay [10] is T3, Caspase-3 (Homo sapiens, UniProt P42574).
T3 sequence (P42574 whole entry): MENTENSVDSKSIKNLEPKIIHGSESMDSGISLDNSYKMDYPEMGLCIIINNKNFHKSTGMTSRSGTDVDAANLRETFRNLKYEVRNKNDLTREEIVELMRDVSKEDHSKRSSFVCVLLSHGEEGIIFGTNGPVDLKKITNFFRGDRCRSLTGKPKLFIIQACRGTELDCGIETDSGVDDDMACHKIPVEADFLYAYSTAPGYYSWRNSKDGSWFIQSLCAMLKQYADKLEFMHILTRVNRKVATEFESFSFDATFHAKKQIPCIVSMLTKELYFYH
As to the kind of experiment: inhibition of recombinant caspase-3 activity – biochemical, luminescence, set 2, selectivity assay for SENP protease inhibitor project, SAR follow-up (AID 588599). The class given is functional.

Assay [11] has as its target T4, Sentrin-specific protease 8 (Homo sapiens, UniProt Q96LD8).
T4 sequence (Q96LD8 whole entry): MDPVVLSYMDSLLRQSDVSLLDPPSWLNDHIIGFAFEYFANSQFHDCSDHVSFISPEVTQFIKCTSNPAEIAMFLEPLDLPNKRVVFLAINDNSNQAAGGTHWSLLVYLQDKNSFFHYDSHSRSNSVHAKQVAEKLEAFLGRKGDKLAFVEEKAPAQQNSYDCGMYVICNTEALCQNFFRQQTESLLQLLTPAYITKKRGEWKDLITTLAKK
Kind of assay: inhibition of sentrin protease 8 – biochemical, luminescence, set 2, SAR follow-up (AID 588601). The class given is functional.

Assay [12] concerns the target T5, Sentrin-specific protease 7 (Homo sapiens, UniProt Q9BQF6).
T5 sequence (Q9BQF6 whole entry): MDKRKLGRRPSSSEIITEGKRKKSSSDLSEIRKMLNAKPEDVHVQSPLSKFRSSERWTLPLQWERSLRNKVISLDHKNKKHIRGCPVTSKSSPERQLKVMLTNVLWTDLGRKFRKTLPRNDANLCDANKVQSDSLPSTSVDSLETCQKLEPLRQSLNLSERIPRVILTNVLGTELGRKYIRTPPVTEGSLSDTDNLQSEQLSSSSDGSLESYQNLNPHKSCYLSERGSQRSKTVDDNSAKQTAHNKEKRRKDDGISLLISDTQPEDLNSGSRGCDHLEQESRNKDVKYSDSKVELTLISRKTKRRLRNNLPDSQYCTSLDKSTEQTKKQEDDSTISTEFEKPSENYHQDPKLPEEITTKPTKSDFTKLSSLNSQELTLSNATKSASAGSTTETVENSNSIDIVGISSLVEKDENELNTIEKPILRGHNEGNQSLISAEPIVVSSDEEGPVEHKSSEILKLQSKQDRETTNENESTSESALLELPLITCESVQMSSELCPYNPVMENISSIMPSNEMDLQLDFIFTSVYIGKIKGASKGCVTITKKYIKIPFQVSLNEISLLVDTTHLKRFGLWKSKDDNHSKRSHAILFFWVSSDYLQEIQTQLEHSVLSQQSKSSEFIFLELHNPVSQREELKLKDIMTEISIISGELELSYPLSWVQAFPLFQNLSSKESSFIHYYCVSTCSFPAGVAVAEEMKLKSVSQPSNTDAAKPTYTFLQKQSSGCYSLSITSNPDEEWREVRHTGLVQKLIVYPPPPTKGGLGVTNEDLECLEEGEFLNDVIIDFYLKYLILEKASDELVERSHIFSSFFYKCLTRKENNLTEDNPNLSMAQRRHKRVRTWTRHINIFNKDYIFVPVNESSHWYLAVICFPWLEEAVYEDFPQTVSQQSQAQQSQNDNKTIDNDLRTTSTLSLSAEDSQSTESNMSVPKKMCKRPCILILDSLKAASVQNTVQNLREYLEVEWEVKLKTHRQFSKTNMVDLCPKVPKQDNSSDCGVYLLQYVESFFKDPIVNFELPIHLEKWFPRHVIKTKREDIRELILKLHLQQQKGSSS
As to the kind of experiment: inhibition of human SENP7 cleavage activity – biochemical, luminescence, set 2, SAR follow-up (AID 588600). Type of assay: functional.

The target in assay [13] is T6, Sentrin-specific protease 6 (Homo sapiens, UniProt Q9GZR1).
T6 sequence (Q9GZR1 whole entry): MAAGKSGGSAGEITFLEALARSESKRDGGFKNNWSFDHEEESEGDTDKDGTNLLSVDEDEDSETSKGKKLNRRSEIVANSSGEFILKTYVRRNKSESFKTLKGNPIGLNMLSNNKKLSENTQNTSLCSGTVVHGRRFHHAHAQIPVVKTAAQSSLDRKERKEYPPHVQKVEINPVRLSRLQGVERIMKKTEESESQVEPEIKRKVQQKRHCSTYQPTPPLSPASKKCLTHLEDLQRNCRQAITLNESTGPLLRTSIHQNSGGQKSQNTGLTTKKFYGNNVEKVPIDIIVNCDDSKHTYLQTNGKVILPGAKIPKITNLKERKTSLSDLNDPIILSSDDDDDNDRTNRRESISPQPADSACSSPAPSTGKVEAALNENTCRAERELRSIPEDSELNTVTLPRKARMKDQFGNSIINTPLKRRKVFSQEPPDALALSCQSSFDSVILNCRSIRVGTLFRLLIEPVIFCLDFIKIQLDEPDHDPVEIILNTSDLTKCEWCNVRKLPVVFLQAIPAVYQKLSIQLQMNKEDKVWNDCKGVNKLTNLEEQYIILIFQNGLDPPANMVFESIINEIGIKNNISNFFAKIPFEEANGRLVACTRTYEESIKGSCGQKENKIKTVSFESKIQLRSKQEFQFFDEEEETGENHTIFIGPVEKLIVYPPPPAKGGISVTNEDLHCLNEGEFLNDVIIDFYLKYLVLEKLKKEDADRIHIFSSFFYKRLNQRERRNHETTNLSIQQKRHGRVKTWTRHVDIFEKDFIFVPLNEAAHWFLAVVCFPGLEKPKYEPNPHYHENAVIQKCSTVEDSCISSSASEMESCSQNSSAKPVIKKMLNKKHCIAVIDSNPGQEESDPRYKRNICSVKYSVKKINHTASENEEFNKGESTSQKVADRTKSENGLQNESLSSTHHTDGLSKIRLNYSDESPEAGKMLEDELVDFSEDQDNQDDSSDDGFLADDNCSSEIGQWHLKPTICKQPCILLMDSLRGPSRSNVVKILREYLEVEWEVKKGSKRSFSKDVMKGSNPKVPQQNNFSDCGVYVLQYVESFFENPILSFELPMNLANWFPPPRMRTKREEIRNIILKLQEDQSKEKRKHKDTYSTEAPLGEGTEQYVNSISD
As to the kind of experiment: inhibition of human SENP6 catalytic domain – biochemical, luminescence, set 2, SAR follow-up (AID 588598). The class given is functional.

Assay [14] has as its target Protein disulfide-isomerase (Homo sapiens, UniProt P07237). As to the kind of experiment: inhibition of PDI-driven insulin aggregation – biochemical, turbidity, absorbance, cherry-picked samples, dose response (AID 602350). The class given is functional.
The target in assay [15] is T4, Sentrin-specific protease 8. Kind of assay: inhibition of human SENP8 cleavage activity – biochemical, luminescence, SAR follow-up (AID 504501). The class given is functional.
The target of assay [16] is T3, Caspase-3. As to the kind of experiment: SAR Analysis of small molecule inhibitors of Sentrin-specific proteases (SENPs) using a Caspase-3 Selectivity assay. [Related pubchem assays (depositor defined):AID2540, AID2599, AID434973, AID489001]. Type of assay: functional.
The target of assay [17] is T6, Sentrin-specific protease 6. Kind of assay: SAR Analysis of small molecule inhibitors of Sentrin-specific protease 6 (SENP6) using a Luminescent assay. [Related pubchem assays (depositor defined):AID2582, AID2599]. The class given is functional.
Assay [18] concerns the target T5, Sentrin-specific protease 7. Kind of assay: inhibition of human SENP7 cleavage activity – biochemical, luminescence, SAR follow-up (AID 504497). Type of assay: functional.

The structures appear in SMILES notation. Activity calls are given as the source filed them. Bounds are passed on as bounds.

Sequence of Protein disulfide-isomerase (P07237 whole entry): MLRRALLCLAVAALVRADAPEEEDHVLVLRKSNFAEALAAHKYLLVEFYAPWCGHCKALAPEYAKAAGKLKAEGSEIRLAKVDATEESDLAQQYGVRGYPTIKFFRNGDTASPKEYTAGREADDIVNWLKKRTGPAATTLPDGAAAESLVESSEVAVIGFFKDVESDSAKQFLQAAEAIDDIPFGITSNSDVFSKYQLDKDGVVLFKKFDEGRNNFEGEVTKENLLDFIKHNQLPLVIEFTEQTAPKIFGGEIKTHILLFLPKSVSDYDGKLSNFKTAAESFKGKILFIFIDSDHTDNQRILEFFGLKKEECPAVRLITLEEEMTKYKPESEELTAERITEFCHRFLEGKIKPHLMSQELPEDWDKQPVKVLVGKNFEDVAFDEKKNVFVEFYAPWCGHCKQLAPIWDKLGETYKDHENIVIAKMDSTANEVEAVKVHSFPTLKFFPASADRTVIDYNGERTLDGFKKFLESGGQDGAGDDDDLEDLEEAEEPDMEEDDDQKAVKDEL
Sequence of NAD-dependent protein deacylase sirtuin-5, mitochondrial (Q9NXA8 whole entry): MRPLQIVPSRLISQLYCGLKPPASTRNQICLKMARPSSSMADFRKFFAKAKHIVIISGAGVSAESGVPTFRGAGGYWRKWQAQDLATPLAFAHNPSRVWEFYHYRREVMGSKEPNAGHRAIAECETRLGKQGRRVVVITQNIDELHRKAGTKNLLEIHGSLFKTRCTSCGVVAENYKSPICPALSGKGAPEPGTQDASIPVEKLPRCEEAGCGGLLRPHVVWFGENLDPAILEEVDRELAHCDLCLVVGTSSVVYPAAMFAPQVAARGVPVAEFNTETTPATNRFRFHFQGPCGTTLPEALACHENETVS

`CCOc1ccccc1C(=O)Nc1ccc2nc3n(c(=O)c2c1)CCCCC3`: the results for the EC50 in assay [1] and in assay [2] were > 160 µM (inactive) and > 38 µM (not active), respectively. Further, the IC50 in assay [3] was > 66.3 µM (inactive); in assay [4], > 49.8 µM (inactive); in assay [5], 0.417 µM (active); in [6], 2.58 µM (active); in [7] it was > 88.8 µM (inactive); in assay [8] it was > 50 µM (inactive). For the same compound, the AC50 in assay [9] was > 30 µM (inactive).
Consider `O=C(NCc1ccccc1F)C(=O)c1c[nH]c2ccccc12`, for which the IC50 in assay [10], in assay [11], in [12] and in [13] was > 99 µM (inactive) each time.
Turning to `CC[C@]12c3[nH]c4cc(-c5ccco5)ccc4c3CCN1C(=O)[C@@H](CC(=O)NCCCOC)C[C@@H]2C(=O)N1CCN(C(=O)c2ccco2)CC1`, the half-maximal activity concentration (AC50) in [14] is 16.7 µM (active).
`Cn1c2ccc(Cl)cc2c2nc3ccccc3nc21`: the IC50 was > 66.2 µM (inactive) in assay [3]; > 49.8 µM (inactive) in assay [4]; 1.13 µM (active) in assay [5]; 4.25 µM (active) in assay [6]; > 88.8 µM (inactive) in assay [7]; > 50 µM (inactive) in assay [8].
As to `O=C(COc1ccc(Cl)cc1Cl)NCC(=O)N/N=C/c1c[nH]c2ccccc12`, the IC50 in [10], in assay [11], in [12] and in assay [13] was > 99 µM (inactive) each time.
Turning to `CCc1cccc2sc(NC(=O)c3cccc(F)c3)nc12`, the IC50 in [15], in [16], in assay [17] and in [18] was > 99 µM (inactive) in each case.
Turning to `C[C@H]1CN([C@@H](C)CO)C(=O)c2cc(NC(=O)Cc3cn(C)c4ccccc34)ccc2O[C@H]1CN(C)S(=O)(=O)c1ccc(F)cc1`, the AC50 in assay [14] was 19.5 µM (active).
